Data taken from PubChem BioAssay (NCI).
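Results reflect a 48-hour exposure of cells in 96-well plates to compound at five concentrations. GI50 = concentration required for 50% inhibition of growth. Definition used: TGI = concentration required for complete inhibition of growth.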

How the values were obtained:
Assay in all cases: NCI anticancer screen, dose series, 48 h
[1] = tested on: HL-60(TB) leukemia
[2] = tested on: SF-268 CNS
[3] = tested on: OVCAR-8 ovarian
[4] = tested on: EKVX NSCLC
[5] = tested on: COLO 205 colon
[6] = tested on: SR leukemia
[7] = tested on: ACHN renal
[8] = tested on: MCF7 breast
[9] = tested on: HCC-2998 colon
[10] = tested on: OVCAR-4 ovarian

O=C(Nc1cccnc1)c1cccc([N+](=O)[O-])c1
GI50 [1]: > 100 µM
TGI [1]: > 100 µM
GI50 [2]: > 100 µM
TGI [2]: > 100 µM
GI50 [3]: > 100 µM
TGI [3]: > 100 µM
GI50 [4]: > 100 µM
TGI [4]: > 100 µM
GI50 [5]: > 100 µM
TGI [5]: > 100 µM
GI50 [6]: > 100 µM
TGI [6]: > 100 µM
GI50 [7]: > 100 µM
TGI [7]: > 100 µM
GI50 [8]: > 100 µM
TGI [8]: > 100 µM
GI50 [9]: > 100 µM
TGI [9]: > 100 µM
GI50 [10]: > 100 µM
TGI [10]: > 100 µM

CC1CC(C)/C(=N/NC(N)=O)C(C(O)CC2CCC(=O)NC2=O)C1 (stereo unspecified)
GI50 [1]: 5.6 µM
TGI [1]: > 100 µM
GI50 [2]: 2.98 µM
TGI [2]: 45.1 µM
GI50 [3]: 2.71 µM
TGI [3]: 57.5 µM
GI50 [4]: 2.3 µM
TGI [4]: 22.6 µM
GI50 [5]: 3.7 µM
TGI [5]: 51.5 µM
GI50 [6]: 8.1 µM
TGI [6]: > 100 µM
GI50 [7]: 1.32 µM
TGI [7]: > 100 µM
GI50 [8]: 3.92 µM
TGI [8]: > 100 µM
GI50 [9]: 5.07 µM
TGI [9]: > 100 µM
GI50 [10]: 5.64 µM
TGI [10]: > 100 µM

Oc1ccc2ccccc2c1C(c1ccc(Cl)cc1)c1c(O)ccc2ccccc12
TGI [1]: 4.91 µM
TGI [2]: 7.26 µM
TGI [3]: 19.9 µM
TGI [4]: 7.58 µM
TGI [5]: 4.49 µM
TGI [6]: > 25.7 µM
TGI [7]: 15.4 µM
TGI [8]: 11.5 µM
TGI [9]: 6.34 µM
TGI [10]: 11.2 µM

O=c1oc2ccc(F)cc2c(=O)n1-c1ccc(Cl)cc1F
GI50 [1]: 0.578 µM
TGI [1]: 2.73 µM
GI50 [2]: 0.879 µM
TGI [2]: 11.7 µM
GI50 [3]: 2.05 µM
TGI [3]: 26.2 µM
GI50 [4]: 1.61 µM
TGI [4]: 8.14 µM
GI50 [5]: 2.14 µM
TGI [5]: 4.87 µM
GI50 [6]: 0.619 µM
TGI [6]: > 39.1 µM
GI50 [7]: 0.7 µM
TGI [7]: 11.8 µM
GI50 [8]: 1.95 µM
TGI [8]: > 29 µM
GI50 [9]: 2.89 µM
TGI [9]: 10.8 µM
GI50 [10]: 0.737 µM
TGI [10]: 7.68 µM

COc1cc(C(=O)N2CCN(c3ccccc3OC)CC2)c(N)cc1OCc1ccccc1
GI50 [1]: 25.5 µM
TGI [1]: 48.8 µM
GI50 [2]: 43.8 µM
TGI [2]: > 100 µM
GI50 [3]: 38.3 µM
TGI [3]: > 100 µM
GI50 [4]: 35.7 µM
TGI [4]: > 100 µM
GI50 [5]: 59.4 µM
TGI [5]: > 100 µM
GI50 [6]: 22.5 µM
TGI [6]: 48.7 µM
GI50 [7]: 32.4 µM
TGI [7]: > 100 µM
GI50 [8]: 29.3 µM
TGI [8]: > 100 µM
GI50 [9]: 40 µM
TGI [9]: > 100 µM
GI50 [10]: 32.2 µM
TGI [10]: > 100 µM

COc1ccc(Cn2cc3c(c2-c2ccc(O)cc2)CCc2cnoc2-3)cc1
GI50 [1]: 0.221 µM
TGI [1]: 0.745 µM
GI50 [2]: 0.784 µM
TGI [2]: 18.5 µM
GI50 [3]: 0.633 µM
TGI [3]: 23.6 µM
GI50 [4]: 0.438 µM
TGI [4]: 26.9 µM
GI50 [5]: 0.577 µM
TGI [5]: 2.01 µM
GI50 [6]: 0.149 µM
TGI [6]: 3.79 µM
GI50 [7]: 0.956 µM
TGI [7]: 19.5 µM
GI50 [8]: 0.333 µM
TGI [8]: 15.5 µM
GI50 [9]: 0.602 µM
TGI [9]: 12.9 µM
GI50 [10]: 1.76 µM
TGI [10]: 19.6 µM

CN(C)c1ccc(/C=C/c2ccnc3ccccc23)cc1N
TGI [1]: 13.9 µM
TGI [2]: 23.2 µM
TGI [3]: 22.1 µM
TGI [4]: 22.4 µM
TGI [5]: 19.6 µM
TGI [6]: 5.87 µM
TGI [7]: 24.1 µM
TGI [8]: 8.29 µM
TGI [9]: 25.3 µM
TGI [10]: 32.9 µM

CC(=O)Nc1ccc2c(c1)C(=O)c1cccc(F)c1-2
TGI [1]: > 100 µM
TGI [2]: > 100 µM
TGI [3]: > 100 µM
TGI [4]: > 100 µM
TGI [5]: > 100 µM
TGI [6]: > 71.4 µM
TGI [7]: > 100 µM
TGI [8]: > 63.9 µM
GI50 [9]: > 100 µM
TGI [9]: > 100 µM
TGI [10]: > 100 µM

O=C(N/N=c1/ccoc2cccnc12)N1CCN(c2ncccn2)CC1
GI50 [1]: 0.0149 µM
TGI [1]: 1.69 µM
GI50 [2]: 0.795 µM
TGI [2]: 15.1 µM
GI50 [3]: 0.031 µM
TGI [3]: 6.67 µM
GI50 [4]: 0.16 µM
TGI [4]: 10.6 µM
GI50 [5]: < 0.01 µM
TGI [5]: 7.57 µM
GI50 [6]: 0.153 µM
TGI [6]: 15.6 µM
GI50 [7]: 0.0145 µM
TGI [7]: 13.2 µM
GI50 [8]: < 0.01 µM
TGI [8]: 11.9 µM
GI50 [9]: 0.905 µM
TGI [9]: 6.59 µM
GI50 [10]: < 0.0129 µM
TGI [10]: 4.65 µM

N#Cc1c(-c2ccc(Cl)cc2)c(-c2ccc(Cl)cc2)nn(CCOC(=O)CCC(=O)O)c1=O
TGI [1]: 10.5 µM
TGI [2]: > 72.1 µM
TGI [3]: > 78.4 µM
TGI [4]: > 100 µM
TGI [5]: 2.57 µM
TGI [6]: 25.6 µM
TGI [7]: > 100 µM
TGI [8]: > 62.3 µM
TGI [9]: 16.1 µM
TGI [10]: > 91.6 µM
